# In the supplement of paper PMC4862054:
# What was measured:
# Conditions in all cases: 72 h
# MFM-223 [1] = tested on: MFM-223
# Experimental: (§1)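 Drug sensitivity and resistance testing (DSRT) of breast cancer cell lines in 384-well plates, 5 concentrations in 10-fold dilutions over a compound-specific 10,000-fold range. After 72 h, cytotoxicity was read by CellTox Green fluorescence and viability by CellTiter-Glo luminescence (multiplexed), normalised to DMSO and benzethonium chloride controls. EC50 is the inflection point of the fitted dose-response curve (bottom asymptote free, so it can be relative for partial curves) and is censored at the highest tested concentration. Rows with DSS 0 (no meaningful response) were excluded.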
# HDQ-P1 [2] = tested on: HDQ-P1
# Experimental: as §1
# BT-549 [3] = tested on: BT-549
# Experimental: as §1
# CAL-51 [4] = tested on: CAL-51
# Experimental: as §1
# MDA-MB-468 [5] = tested on: MDA-MB-468
# Experimental: as §1
# BT-474 [6] = tested on: BT-474
# Experimental: as §1
# CAL-85-1 [7] = tested on: CAL-85-1
# Experimental: as §1
# MDA-MB-231 [8] = tested on: MDA-MB-231
# Experimental: as §1
# MCF-10A [9] = tested on: MCF-10A
# Experimental: as §1
# CAL-120 [10] = tested on: CAL-120
# Experimental: as §1
# Hs578T [11] = tested on: Hs578T
# Experimental: as §1
# MFM-223 [12] = tested on: MFM-223; remark: listed apart in the source
# Method in brief: (§2)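 EC50 is the value from a fitted percent-inhibition dose-response curve, censored at the highest concentration, and rows with zero drug sensitivity score were not kept. The underlying assay seeded breast cancer cell lines in 20 µl onto 384-well plates pre-loaded with compound in 5 µl medium for 72 h. Viability was then read by CellTiter-Blue fluorescence at 560/590 nm after 2 h at 37 °C, with each plate normalised to vehicle and a positive kill control.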
# BT-549 [13] = tested on: BT-549; remark: listed apart in the source
# Method in brief: as §2
# MDA-MB-468 [14] = tested on: MDA-MB-468; remark: listed apart in the source
# Method in brief: as §2
# BT-474 [15] = tested on: BT-474; remark: listed apart in the source
# Method in brief: as §2
# SK-BR-3 [16] = tested on: SK-BR-3
# Method in brief: as §2
# MDA-MB-436 [17] = tested on: MDA-MB-436
# Method in brief: as §2
# CAL-120 [18] = tested on: CAL-120; remark: listed apart in the source
# Method in brief: as §2
# Hs578T [19] = tested on: Hs578T; remark: listed apart in the source
# Method in brief: as §2
# MFM-223 [20] = tested on: MFM-223; remark: listed apart in the source
# Method in brief: (§3)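 Breast cancer cell lines in 20 µl suspension were added to 384-well plates already holding compound at 5 concentrations, spaced in 10-fold steps across a compound-specific 10,000-fold range, and incubated for 72 h. CellTox Green fluorescence (485/520 nm) was read first to measure cell death, followed by CellTiter-Glo luminescence for viability after 10 min at room temperature. Each plate was normalised to 0.1 % DMSO and a positive kill control. EC50 values came from dose-response curve fits and were censored at the top concentration.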
# MDA-MB-453 [21] = tested on: MDA-MB-453
# Method in brief: as §3
# HDQ-P1 [22] = tested on: HDQ-P1; remark: listed apart in the source
# Method in brief: as §3
# BT-549 [23] = tested on: BT-549; remark: listed apart in the source
# Method in brief: as §3
# HCC1599 = tested on: HCC1599
# Method in brief: as §3
# HCC1143 = tested on: HCC1143
# Method in brief: as §3
# HCC1937 = tested on: HCC1937
# Method in brief: as §3
# CAL-148 [24] = tested on: CAL-148
# Method in brief: as §3
# CAL-51 [25] = tested on: CAL-51; remark: listed apart in the source
# Method in brief: as §3
# MDA-MB-468 [26] = tested on: MDA-MB-468; remark: listed apart in the source
# Method in brief: as §3
# BT-474 [27] = tested on: BT-474; remark: listed apart in the source
# Method in brief: as §3
# CAL-85-1 [28] = tested on: CAL-85-1; remark: listed apart in the source
# Method in brief: as §3
# SK-BR-3 [29] = tested on: SK-BR-3; remark: listed apart in the source
# Method in brief: as §3
# MDA-MB-231 [30] = tested on: MDA-MB-231; remark: listed apart in the source
# Method in brief: as §3
# DU-4475 [31] = tested on: DU-4475
# Method in brief: as §3
# MDA-MB-436 [32] = tested on: MDA-MB-436; remark: listed apart in the source
# Method in brief: as §3
# MCF-10A [33] = tested on: MCF-10A; remark: listed apart in the source
# Method in brief: as §3
# CAL-120 [34] = tested on: CAL-120; remark: listed apart in the source
# Method in brief: as §3
# Hs578T [35] = tested on: Hs578T; remark: listed apart in the source
# Method in brief: as §3
# MDA-MB-453 [36] = tested on: MDA-MB-453; remark: listed apart in the source
# Method in brief: as §2
# HDQ-P1 [37] = tested on: HDQ-P1; remark: listed apart in the source
# Method in brief: as §2
# CAL-148 [38] = tested on: CAL-148; remark: listed apart in the source
# Method in brief: as §2
# CAL-51 [39] = tested on: CAL-51; remark: listed apart in the source
# Method in brief: as §2
# CAL-85-1 [40] = tested on: CAL-85-1; remark: listed apart in the source
# Method in brief: as §2
# DU-4475 [41] = tested on: DU-4475; remark: listed apart in the source
# Method in brief: as §2
# MDA-MB-453 [42] = tested on: MDA-MB-453; remark: listed apart in the source
# Experimental: as §1
smiles,measurement,setting,value
C=CC(=O)Nc1cc2c(Nc3ccc(F)c(Cl)c3)ncnc2cc1OCCCN1CCOCC1 [Canertinib],"EC50, CellTox Green",MFM-223 [1],6740 nM
same,"EC50, CellTox Green",HDQ-P1 [2],3470 nM
same,"EC50, CellTox Green",BT-549 [3],9070 nM
same,"EC50, CellTox Green",CAL-51 [4],3010 nM
same,"EC50, CellTox Green",MDA-MB-468 [5],3210 nM
same,"EC50, CellTox Green",BT-474 [6],9800 nM
same,"EC50, CellTox Green",CAL-85-1 [7],1620 nM
same,"EC50, CellTox Green",MDA-MB-231 [8],4920 nM
same,"EC50, CellTox Green",MCF-10A [9],1690 nM
same,"EC50, CellTox Green",CAL-120 [10],6660 nM
same,"EC50, CellTox Green",Hs578T [11],2850 nM
same,"EC50, CellTiter-Blue viability",MFM-223 [12],3020 nM
same,"EC50, CellTiter-Blue viability",BT-549 [13],2480 nM
same,"EC50, CellTiter-Blue viability",MDA-MB-468 [14],571 nM
same,"EC50, CellTiter-Blue viability",BT-474 [15],110 nM
same,"EC50, CellTiter-Blue viability",SK-BR-3 [16],16.6 nM
same,"EC50, CellTiter-Blue viability",MDA-MB-436 [17],811 nM
same,"EC50, CellTiter-Blue viability",CAL-120 [18],1720 nM
same,"EC50, CellTiter-Blue viability",Hs578T [19],3700 nM
same,"EC50, CellTiter-Glo",MFM-223 [20],5500 nM
same,"EC50, CellTiter-Glo",MDA-MB-453 [21],3020 nM
same,"EC50, CellTiter-Glo",HDQ-P1 [22],930 nM
same,"EC50, CellTiter-Glo",BT-549 [23],2110 nM
same,"EC50, CellTiter-Glo",HCC1599,586 nM
same,"EC50, CellTiter-Glo",HCC1143,4710 nM
same,"EC50, CellTiter-Glo",HCC1937,3340 nM
same,"EC50, CellTiter-Glo",CAL-148 [24],1390 nM
same,"EC50, CellTiter-Glo",CAL-51 [25],573 nM
same,"EC50, CellTiter-Glo",MDA-MB-468 [26],1120 nM
same,"EC50, CellTiter-Glo",BT-474 [27],2600 nM
same,"EC50, CellTiter-Glo",CAL-85-1 [28],595 nM
same,"EC50, CellTiter-Glo",SK-BR-3 [29],48.8 nM
same,"EC50, CellTiter-Glo",MDA-MB-231 [30],1630 nM
same,"EC50, CellTiter-Glo",DU-4475 [31],8210 nM
same,"EC50, CellTiter-Glo",MDA-MB-436 [32],4370 nM
same,"EC50, CellTiter-Glo",MCF-10A [33],106 nM
same,"EC50, CellTiter-Glo",CAL-120 [34],5390 nM
same,"EC50, CellTiter-Glo",Hs578T [35],5450 nM
same,"EC50, CellTiter-Blue viability",MDA-MB-453 [36],243 nM
same,"EC50, CellTiter-Blue viability",HDQ-P1 [37],448 nM
same,"EC50, CellTiter-Blue viability",CAL-148 [38],3370 nM
same,"EC50, CellTiter-Blue viability",CAL-51 [39],4690 nM
same,"EC50, CellTiter-Blue viability",CAL-85-1 [40],361 nM
same,"EC50, CellTiter-Blue viability",DU-4475 [41],5980 nM
Nc1ncn([C@H]2C[C@H](O)[C@@H](CO)O2)c(=O)n1 [Decitabine],"EC50, CellTox Green",MDA-MB-453 [42],> 10000 nM
same,"EC50, CellTox Green",CAL-51 [4],28.9 nM
same,"EC50, CellTox Green",MDA-MB-468 [5],> 10000 nM
same,"EC50, CellTiter-Blue viability",BT-549 [13],1800 nM
same,"EC50, CellTiter-Blue viability",MDA-MB-468 [14],40.4 nM
same,"EC50, CellTiter-Blue viability",BT-474 [15],1970 nM
same,"EC50, CellTiter-Blue viability",SK-BR-3 [16],3470 nM
same,"EC50, CellTiter-Blue viability",MDA-MB-436 [17],90.1 nM
same,"EC50, CellTiter-Glo",HDQ-P1 [22],> 10000 nM
same,"EC50, CellTiter-Glo",BT-549 [23],604 nM
same,"EC50, CellTiter-Glo",HCC1937,3500 nM
same,"EC50, CellTiter-Glo",CAL-51 [25],1160 nM
same,"EC50, CellTiter-Glo",MDA-MB-468 [26],65.2 nM
same,"EC50, CellTiter-Glo",BT-474 [27],> 10000 nM
same,"EC50, CellTiter-Glo",Hs578T [35],> 10000 nM
same,"EC50, CellTiter-Blue viability",MDA-MB-453 [36],6490 nM
same,"EC50, CellTiter-Blue viability",CAL-148 [38],6600 nM
same,"EC50, CellTiter-Blue viability",CAL-51 [39],2380 nM
same,"EC50, CellTiter-Blue viability",DU-4475 [41],6760 nM
